Data set [1] concerns Quadruplex DNA. In words: Binding affinity to c-Kit G-quadruplex DNA (unknown origin) assessed as emission maximum at 5 uM after 5 mins by fluorescence titration method (reference value: 559 nanometer). In kind it is nucleic-acid assay.
Data set [2] has as its system Quadruplex DNA. In words: Binding affinity to Bcl2 G-quadruplex DNA (unknown origin) assessed as absorption maximum at 5 uM after 5 mins by fluorescence titration method (reference value: 405 nanometer). In kind it is nucleic-acid assay.
The test system of data set [3] is Quadruplex DNA. Description: Binding affinity to Bcl2 G-quadruplex DNA (unknown origin) assessed as red shift at 15 uM after 5 mins by UV-Visible absorbance titration method. In kind it is nucleic-acid assay.
The subject of data set [4] is Quadruplex DNA. Description: Binding affinity to c-Kit G-quadruplex DNA (unknown origin) assessed as compound fluorescence life time at 5 uM after 5 mins by fluorescence titration method (reference value: 3.626 nanoseconds). The data set is classed as nucleic-acid assay.
The test system of data set [5] is Quadruplex DNA. In words: Binding affinity to Bcl2 G-quadruplex DNA (unknown origin) assessed as enhanced fluorescence time at 5 uM after 5 mins by fluorescence titration assay relative to control. In kind it is nucleic-acid assay.
The test system of data set [6] is dsDNA. Description: Binding affinity to 26-mer duplex DNA (unknown origin) assessed as absorption maximum at 5 uM after 5 mins by fluorescence titration method (reference value: 405 nanometer). The data set is classed as nucleic-acid assay.
Data set [7] deals with HepG2. Description: Induction of morphological changes in human HepG2 cells assessed as debris formation at 10 uM after 24 hrs. In kind it is functional, cell-based.
Data set [8] deals with Quadruplex DNA. In words: Binding affinity to human telomeric G-quadruplex DNA assessed as enhanced fluorescence time at 5 uM after 5 mins in presence of sodium ion by fluorescence titration assay relative to control. In kind it is nucleic-acid assay.
Data set [9] concerns Quadruplex DNA. Description: Binding affinity to c-Kit G-quadruplex DNA (unknown origin) assessed as absorption maximum at 5 uM after 5 mins by fluorescence titration method (reference value: 405 nanometer). In kind it is nucleic-acid assay.
The subject of data set [10] is Quadruplex DNA. In words: Binding affinity to human telomeric G-quadruplex DNA assessed as hyperchromicity at 15 uM after 5 mins in presence of potassium ion by UV-Visible absorbance titration method. In kind it is nucleic-acid assay.
Data set [11] concerns dsDNA. Description: Binding affinity to 26-mer duplex DNA (unknown origin) assessed as hyperchromicity at 15 uM after 5 mins by UV-Visible absorbance titration method. The data set is classed as nucleic-acid assay.
Data set [12] can be described thus: Drug uptake in DNase-1 treated human HepG2 cell nucleus at 10 uM after 2.5 hrs by confocal microscopic method. To be noted: hepg2, 2.5 h. In kind it is ADME, subcellular.
For data set [13], the system named is Quadruplex DNA. In words: Binding affinity to human telomeric G-quadruplex DNA assessed as enhanced fluorescence ratio at 5 uM after 5 mins in presence of potassium ion by fluorescence titration assay relative to control. The data set is classed as nucleic-acid assay.
In data set [14] the test system is dsDNA. In words: Binding affinity to 26-mer duplex DNA (unknown origin) assessed as compound fluorescence life time at 5 uM after 5 mins by fluorescence titration method (reference value: 3.626 nanoseconds). The data set is classed as nucleic-acid assay.
Data set [15] concerns Quadruplex DNA. In words: Binding affinity to human telomeric G-quadruplex DNA assessed as hyperchromicity at 15 uM after 5 mins in presence of sodium ion by UV-Visible absorbance titration method. In kind it is nucleic-acid assay.
For data set [16], the system named is Quadruplex DNA. In words: Binding affinity to human telomeric G-quadruplex DNA assessed as compound fluorescence life time at 5 uM after 5 mins in presence of potassium ion by fluorescence titration method (reference value: 3.626 nanoseconds). The data set is classed as nucleic-acid assay.
Data set [17] concerns dsDNA. Description: Binding affinity to 26-mer duplex DNA (unknown origin) assessed as enhanced fluorescence ratio at 5 uM after 5 mins in presence of sodium ion by fluorescence titration assay relative to control. In kind it is nucleic-acid assay.
For data set [18], the system named is Quadruplex DNA. Description: Binding affinity to Bcl2 G-quadruplex DNA (unknown origin) assessed as enhanced fluorescence ratio at 5 uM after 5 mins by fluorescence titration assay relative to control. In kind it is nucleic-acid assay.
In data set [19] the test system is Quadruplex DNA. In words: Binding affinity to c-Kit G-quadruplex DNA (unknown origin) assessed as enhanced fluorescence time at 5 uM after 5 mins by fluorescence titration assay relative to control. The data set is classed as nucleic-acid assay.
Data set [20] concerns Quadruplex DNA. Description: Binding affinity to c-Myc G-quadruplex DNA (unknown origin) assessed as hyperchromicity at 15 uM after 5 mins by UV-Visible absorbance titration method. In kind it is nucleic-acid assay.
Data set [21] concerns Quadruplex DNA. In words: Binding affinity to c-Myc G-quadruplex DNA (unknown origin) assessed as compound fluorescence life time at 5 uM after 5 mins by fluorescence titration method (reference value: 3.626 nanoseconds). The data set is classed as nucleic-acid assay.
In data set [22] the test system is dsDNA. In words: Binding affinity to 26-mer duplex DNA (unknown origin) assessed as red shift at 15 uM after 5 mins by UV-Visible absorbance titration method. The data set is classed as nucleic-acid assay.
In data set [23] the test system is Calf thymus DNA. In words: Binding affinity to calf thymus DNA assessed as hyperchromicity at 15 uM after 5 mins by UV-Visible absorbance titration method. The settings on record: Bos taurus. The data set is classed as nucleic-acid assay.
Data set [24] relates to HepG2. Description: Induction of morphological changes in human HepG2 cells assessed as cellular clumping at 10 uM after 24 hrs. The data set is classed as functional, cell-based.
The subject of data set [25] is Quadruplex DNA. In words: Binding affinity to Bcl2 G-quadruplex DNA (unknown origin) assessed as emission maximum at 5 uM after 5 mins by fluorescence titration method (reference value: 559 nanometer). The data set is classed as nucleic-acid assay.
The nature of data set [26]: Drug uptake in fixed human HepG2 cell nucleus at 10 uM after 2.5 hrs by confocal microscopic method. The data set is classed as ADME, subcellular. To be noted: hepg2, 2.5 h.
The subject of data set [27] is Quadruplex DNA. In words: Binding affinity to human telomeric G-quadruplex DNA assessed as red shift at 10 uM after 5 mins in presence of sodium ion by UV-Visible absorbance titration method. In kind it is nucleic-acid assay.
The subject of data set [28] is Calf thymus DNA. In words: Binding affinity to calf thymus DNA assessed as absorption maximum at 5 uM after 5 mins by fluorescence titration method (reference value: 453 nanometer). The data set is classed as nucleic-acid assay. The settings on record: Bos taurus.
The nature of data set [29]: Drug uptake in RNase-A treated human HepG2 cell cytoplasm at 3 uM after 30 mins by H33258.staining based confocal microscopic method. The data set is classed as ADME, subcellular. To be noted: hepg2, 0.5 h.
The subject of data set [30] is Quadruplex DNA. In words: Binding affinity to human telomeric G-quadruplex DNA assessed as emission maximum at 5 uM after 5 mins in presence of sodium ion by fluorescence titration method (reference value: 584 nanometer). The data set is classed as nucleic-acid assay.
Data set [31] deals with Quadruplex DNA. Description: Binding affinity to Bcl2 G-quadruplex DNA (unknown origin) assessed as absorption maximum at 5 uM after 5 mins by fluorescence titration method (reference value: 453 nanometer). The data set is classed as nucleic-acid assay.
The subject of data set [32] is Quadruplex DNA. In words: Binding affinity to human telomeric G-quadruplex DNA assessed as hyperchromicity at 10 uM after 5 mins in presence of sodium ion by UV-Visible absorbance titration method. The data set is classed as nucleic-acid assay.
Data set [33] has as its system Quadruplex DNA. Description: Binding affinity to c-Myc G-quadruplex DNA (unknown origin) assessed as compound fluorescence life time at 5 uM after 5 mins by fluorescence titration method (reference value: 0.192 nanoseconds). In kind it is nucleic-acid assay.
The test system of data set [34] is HepG2. Description: Induction of morphological changes in human HepG2 cells assessed as cellular clumping at 5 uM after 24 hrs. In kind it is functional, cell-based.
Data set [35] has as its system Quadruplex DNA. Description: Binding affinity to c-Myc G-quadruplex DNA (unknown origin) assessed as red shift at 10 uM after 5 mins by UV-Visible absorbance titration method. The data set is classed as nucleic-acid assay.
Data set [36] deals with Quadruplex DNA. Description: Binding affinity to human telomeric G-quadruplex DNA assessed as compound fluorescence life time at 5 uM after 5 mins in presence of sodium ion by fluorescence titration method (reference value: 0.192 nanoseconds). In kind it is nucleic-acid assay.
Data set [37] has as its system Quadruplex DNA. In words: Binding affinity to c-Myc G-quadruplex DNA (unknown origin) assessed as emission maximum at 5 uM after 5 mins by fluorescence titration method (reference value: 584 nanometer). In kind it is nucleic-acid assay.
Data set [38] concerns Quadruplex DNA. Description: Binding affinity to c-Kit G-quadruplex DNA (unknown origin) assessed as compound fluorescence life time at 5 uM after 5 mins by fluorescence titration method (reference value: 0.192 nanoseconds). In kind it is nucleic-acid assay.

Here are results for 2 compounds from ChEMBL document CHEMBL4184182, “Studies on interactions of carbazole derivatives with DNA, cell image, and cytotoxicity” (Bioorg Med Chem, 2018).

Activity calls are given as the source filed them. The rule behind the calls is not given here.

Take `CCn1c2ccccc2c2cc(/C=C(\C#N)c3ccc[n+](C)c3)ccc21.[I-]`: the Activity in data set [1] came out at 550 nm; in [2], 434 nm; in data set [3], 29 nm; in data set [6], 422 nm; in data set [9], 432 nm; in [10] it was 41.2%. Moreover, the Activity in data set [11] stood at 27.7%; in data set [15], 37.9%; in data set [20], 41.7%; in data set [22], 17 nm; in data set [23] it was 39.4%; in data set [25], 541 nm. Moreover, the Time in [4] is 7.04 nanoseconds; in data set [14], 2.43 nanoseconds; in [16], 6.35 nanoseconds; in data set [21], 4.12 nanoseconds. The fold change (FC) in [5], in data set [8] and in data set [19] was 11.2 to 20.6 each time. In addition, the outcome in data set [7] and in data set [24] was Active. The Drug uptake result in data set [12] is recorded as “Not Active”; in [26], “Active”. Moreover, the Ratio in data set [13], in data set [17] and in data set [18] was > 6 throughout.
As to `CCn1c2ccccc2c2cc(/C=C/c3sc4ccccc4[n+]3CC)ccc21.[I-]`, the Activity in [27] was found to be 24 nm; in data set [28] it was 477 nm; in data set [30] it was 578 nm; in data set [31] it was 500 nm; in data set [32], 48.4%; in [35], 53 nm. Moreover, the Activity in data set [37] was 581 nm. Besides, the Drug uptake entry in data set [29] is “Active”. Also, the Time in data set [33] came out at 1.68 nanoseconds; in data set [36], 2.15 nanoseconds; in data set [38], 1.51 nanoseconds. The result in data set [34] was Active.
